Patent publication US8476265B2, “Compounds-801” (AstraZeneca AB, priority 2010, dated 2013)
Counter-ions that a name gives are not always drawn.

How the values were obtained:
Adrenergic β2 = target: T1, Adrenergic β2 (Homo sapiens, UniProt P07550); assay: Adrenergic β2 mediated cAMP production in H292 cells (AlphaScreen), concentration response; format: cell-based; conditions: for EC50: 60 min, 300 μM rolipram, read-out: β2 pEC50 (converted); for β2 Intrinsic Activity: fraction relative to the maximum activity determined for formoterol
T1 construct: Adherent H292 cells are removed from tissue culture flasks by treatment with Accutase™ cell detachment solution; endogenous in cells; host or cells: H292 cells
In short: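 Intracellular cAMP in lysates read by AlphaScreen, calibrated with cAMP standards; curves fitted for pEC50, with intrinsic activity as a fraction of formoterol's maximum. Agonist exposure 60 min at room temperature after 10 min rolipram (300 μM final), 1% DMSO, HEPES-buffered HBSS pH 7.4.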

[1] = target: T2, human muscarinic acetylcholine M3 receptor (Homo sapiens, UniProt P20309); assay: Muscarinic 3 receptor binding assay ([3H]NMS competition, SPA), pIC50; conditions: [3H]NMS 0.1 nM, CHO-K1 cell membranes expressing human M3 receptor
T2 construct: expressed in transfected cells; host or cells: CHO-K1 (Chinese Hamster Ovary) cell membranes
In short: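 SPA beads precoated with human M3-expressing CHO-K1 membranes were incubated 16 h at room temperature with serially diluted compound and 0.1 nM [3H]NMS (pH 7.4 HEPES buffer, MgCl2, BSA, 1% DMSO). Atropine (1 μM) defined non-specific binding; pIC50 is the 50% reduction in specific binding.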

T2 sequence (P20309 whole entry): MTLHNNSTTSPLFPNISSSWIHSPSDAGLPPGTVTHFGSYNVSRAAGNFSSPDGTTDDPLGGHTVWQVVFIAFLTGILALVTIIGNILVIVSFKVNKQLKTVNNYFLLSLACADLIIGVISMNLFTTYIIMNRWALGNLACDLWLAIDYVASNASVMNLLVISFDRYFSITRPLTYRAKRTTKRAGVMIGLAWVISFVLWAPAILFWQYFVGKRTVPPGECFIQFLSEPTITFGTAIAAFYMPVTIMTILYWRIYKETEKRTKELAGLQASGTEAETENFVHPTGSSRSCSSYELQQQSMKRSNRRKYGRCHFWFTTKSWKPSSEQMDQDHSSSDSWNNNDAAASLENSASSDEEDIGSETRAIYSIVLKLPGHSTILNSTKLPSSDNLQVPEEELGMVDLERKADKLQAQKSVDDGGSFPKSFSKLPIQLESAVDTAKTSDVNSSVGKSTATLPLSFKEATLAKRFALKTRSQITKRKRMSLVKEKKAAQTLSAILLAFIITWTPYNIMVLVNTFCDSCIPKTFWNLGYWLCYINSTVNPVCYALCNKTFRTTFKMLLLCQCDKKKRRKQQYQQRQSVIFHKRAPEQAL
T1 sequence (P07550 whole entry): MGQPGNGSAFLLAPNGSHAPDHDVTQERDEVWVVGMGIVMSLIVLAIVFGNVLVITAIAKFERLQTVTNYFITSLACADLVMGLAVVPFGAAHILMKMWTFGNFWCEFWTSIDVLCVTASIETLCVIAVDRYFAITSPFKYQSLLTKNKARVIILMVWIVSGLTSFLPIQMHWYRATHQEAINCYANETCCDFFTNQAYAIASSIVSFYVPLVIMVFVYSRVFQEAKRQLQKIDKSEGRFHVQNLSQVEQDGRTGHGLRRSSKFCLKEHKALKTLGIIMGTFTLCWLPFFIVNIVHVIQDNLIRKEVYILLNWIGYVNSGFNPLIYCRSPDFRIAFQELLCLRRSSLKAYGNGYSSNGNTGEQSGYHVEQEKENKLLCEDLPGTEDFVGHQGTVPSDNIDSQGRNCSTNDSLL

Row | EC50 (Adrenergic β2) | β2 Intrinsic Activity (Adrenergic β2) | IC50 [1] | Structure (SMILES)
1 | 100 nM | 0.7 | 0.794 nM | CCN(CCNCCc1ccc(O)c2[nH]c(=O)sc12)C(=O)CCOCCc1ccc(OCCCN2CCC3(CC2)CN(C(=O)c2csc(C(C)C)n2)CCO3)cc1 [Example 62, N-Ethyl-N-(2-(2-(4-hydroxy-2-oxo-2,3-dihydrobenzo[d]thiazol-7-yl)ethylamino)ethyl)-3-(4-(3-(4-(2-isopropylthiazole-4-carbonyl)-1-oxa-4,9-diazaspiro[5.5]undecan-9-yl)propoxy)phenethoxy)propanamide ditrifluoroacetate]
2 | 20 nM | 1.0 | 0.398 nM | CCc1nc(C(=O)N2CCOC3(CCN(Cc4cccc(CCOCCC(=O)N(CCNCCc5ccc(O)c6c5OCC(=O)N6)[C@H](C)CC)c4Cl)CC3)C2)cs1 [Example 31, (R)—N-sec-Butyl-3-(2-chloro-3-((4-(2-ethylthiazole-4-carbonyl)-1-oxa-4,9-diazaspiro[5.5]undecan-9-yl)methyl)phenethoxy)-N-(2-(2-(5-hydroxy-3-oxo-3,4-dihydro-2H-benzo[b][1,4]oxazin-8-yl)ethylamino)ethyl)propanamide ditrifluoroacetate]
3 | 251 nM | 1.2 | 0.2 nM | CC(C)c1cc(C(=O)N2CCOC3(CCN(Cc4cccc(CCOCCC(=O)N(CCNCCc5ccc(O)c6c5OCC(=O)N6)C5CCCCC5)c4)CC3)C2)cs1 [Example 91, N-Cyclohexyl-N-(2-(2-(5-hydroxy-3-oxo-3,4-dihydro-2H-benzo[b][1,4]oxazin-8-yl)ethylamino)ethyl)-3-(3-((4-(5-isopropylthiophene-3-carbonyl)-1-oxa-4,9-diazaspiro[5.5]undecan-9-yl)methyl)phenethoxy)propanamide]
4 | 39.8 nM | 1.0 | 0.501 nM | CC(C)c1nc(C(=O)N2CCOC3(CCN(Cc4cccc(CCOCCC(=O)N(CCNCCc5ccc(O)c6c5OCC(=O)N6)[C@H](C)C(C)C)c4F)CC3)C2)cs1 [Example 12, R)-3-(2-Fluoro-3-((4-(2-isopropylthiazole-4-carbonyl)-1-oxa-4,9-diazaspiro[5.5]undecan-9-yl)methyl)phenethoxy)-N-(2-(2-(5-hydroxy-3-oxo-3,4-dihydro-2H-benzo[b][1,4]oxazin-8-yl)ethylamino)ethyl)-N-(3-methylbutan-2-yl)propanamide ditrifluoroacetate]
5 | 158 nM | 0.9 | 3.16 nM | CC(C)c1nc(C(=O)N2CCOC3(CCN(Cc4cc(CCOCCC(=O)N(CCNCCc5ccc(O)c6c5OCC(=O)N6)C5CCCCC5)ccc4Cl)CC3)C2)cs1 [Example 49, 3-(4-Chloro-3-((4-(2-isopropylthiazole-4-carbonyl)-1-oxa-4,9-diazaspiro[5.5]undecan-9-yl)methyl)phenethoxy)-N-cyclohexyl-N-(2-(2-(5-hydroxy-3-oxo-3,4-dihydro-2H-benzo[b][1,4]oxazin-8-yl)ethylamino)ethyl)propanamide ditrifluoroacetate]
6 | 200 nM | 1.0 | 0.2 nM | O=C1COc2c(CCNCCN(C(=O)CCOCCc3cccc(CN4CCC5(CC4)CN(C(=O)c4csc(C6CCCC6)n4)CCO5)c3)C3CCCCC3)ccc(O)c2N1 [Example 88, N-Cyclohexyl-3-(3-((4-(2-cyclopentylthiazole-4-carbonyl)-1-oxa-4,9-diazaspiro[5.5]undecan-9-yl)methyl)phenethoxy)-N-(2-(2-(5-hydroxy-3-oxo-3,4-dihydro-2H-benzo[b][1,4]oxazin-8-yl)ethylamino)ethyl)propanamide]
7 | 20 nM | 0.9 | 2 nM | CC(C)c1nc(C(=O)N2CCOC3(CCN(Cc4cccc(CCOCCC(=O)N(CCNCCc5ccc(O)c6c5OCC(=O)N6)C5CCCCC5)c4Cl)CC3)C2)cs1 [Example 27, 3-(2-Chloro-3-((4-(2-isopropylthiazole-4-carbonyl)-1-oxa-4,9-diazaspiro[5.5]undecan-9-yl)methyl)phenethoxy)-N-cyclohexyl-N-(2-(2-(5-hydroxy-3-oxo-3,4-dihydro-2H-benzo[b][1,4]oxazin-8-yl)ethylamine)ethyl)propanamide ditrifluoroacetate]
8 | 3.16 nM | 1.0 | 3.98 nM | CCN(CCNCCc1ccc(O)c2[nH]c(=O)sc12)C(=O)CCOCCc1cccc(CCN2CCC3(CC2)CN(C(=O)c2csc(C(C)C)n2)CCO3)c1 [Example 35, N-Ethyl-N-(2-(2-(4-hydroxy-2-oxo-2,3-dihydrobenzo[d]thiazol-7-yl)ethylamino)ethyl)-3-(3-(2-(4-(2-isopropylthiazole-4-carbonyl)-1-oxa-4,9-diazaspiro[5.5]undecan-9-yl)ethyl)phenethoxy)propanamide ditrifluoroacetate]
9 | 39.8 nM | 0.9 | 6.31 nM | Cc1nc(C(=O)N2CCOC3(CCN(Cc4ccc(CCOCCC(=O)N(CCNCCc5ccc(O)c6c5OCC(=O)N6)C5CCCCC5)cc4)CC3)C2)cs1 [Example 45, N-Cyclohexyl-N-(2-(2-(5-hydroxy-3-oxo-3,4-dihydro-2H-benzo[b][1,4]oxazin-8-yl)ethylamino)ethyl)-3-(4-((4-(2-methylthiazole-4-carbonyl)-1-oxa-4,9-diazaspiro[5.5]undecan-9-yl)methyl)phenethoxy)propanamide ditrifluoroacetate]
10 | 398 nM | 0.9 | 1 nM | CCN(CCNCCc1ccc(O)c2[nH]c(=O)sc12)C(=O)CCOCCc1cc(CN2CCC3(CC2)CN(C(=O)c2csc(C(C)C)n2)CCO3)ccc1F [Example 43, N-Ethyl-3-(2-fluoro-5-((4-(2-isopropylthiazole-4-carbonyl)-1-oxa-4,9-diazaspiro[5.5]undecan-9-yl)methyl)phenethoxy)-N-(2-(2-(4-hydroxy-2-oxo-2,3-dihydrobenzo[d]thiazol-7-yl)ethylamino)ethyl)propanamide ditrifluoroacetate]
11 | 31.6 nM | 0.9 | 1 nM | CC(C)c1nc(C(=O)N2CCOC3(CCN(CCc4ccc(CCOCCC(=O)N(CCNCCc5ccc(O)c6c5OCC(=O)N6)C5CCCCC5)cc4)CC3)C2)cs1 [Example 2, N-Cyclohexyl-N-(2-(2-(5-hydroxy-3-oxo-3,4-dihydro-2H-benzo[b][1,4]oxazin-8-yl)ethylamino)ethyl)-3-(4-(2-(4-(2-Isopropylthiazole-4-carbonyl)-1-oxa-4,9-diazaspiro[5.5]undecan-9-371)ethyl)phenethoxy)propanamide ditrifluoroacetate]
12 | 158 nM | 1.0 | 1.58 nM | CC(C)(C)c1nc(C(=O)N2CCOC3(CCN(Cc4cccc(CCOCCC(=O)N(CCNCCc5ccc(O)c6c5OCC(=O)N6)C5CCCCC5)c4)CC3)C2)cs1 [Example 86, 3-(3-((4-(2-tert-Butylthiazole-4-carbonyl)-1-oxa-4,9-diazaspiro[5.5]undecan-9-yl)methyl)phenethoxy)-N-cyclohcxyl-N-(2-(2-(5-hydroxy-3-oxo-3,4-dihydro-2H-benzo[b][1,4]oxazin-8-yl)ethylamino)ethyl)propanamide]
13 | 15.8 nM | – | 0.631 nM | CCCCN(CCNCCc1ccc(O)c2c1OCC(=O)N2)C(=O)CCOCCc1cccc(CCN2CCC3(CC2)CN(C(=O)c2csc(C(C)C)n2)CCO3)c1 [Example 34a, N-Butyl-N-(2-(2-(5-hydroxy-3-oxo-3,4-dihydro-2H-benzo[b][1,4]oxazin-8-yl)ethylamino)ethyl)-3-(3-(2-(4-(2-isopropylthiazole-4-carbonyl)-1-oxa-4,9-diazaspiro[5.5]undecan-9-yl)ethyl)phenethoxy)propanamide Sulphate salt Modification A]
14 | 126 nM | 0.9 | 794 nM | CCN(CCNCCc1ccc(O)c2[nH]c(=O)sc12)C(=O)CCOCCc1cc(Cl)cc(CN2CCC3(CC2)CN(C(=O)c2csc(C(C)C)n2)CCO3)c1 [Example 50, 3-(3-Chloro-5-((4-(2-isopropylthiazole-4-carbonyl)-1-oxa-4,9-diazaspiro[5.5]undecan-9-yl)methyl)phenethoxy)-N-ethyl-N-(2-(2-(4-hydroxy-2-oxo-2,3-dihydrobenzo[d]thiazol-7-yl)ethylamino)ethyl)propanamide ditrifluoroacetate]
15 | 251 nM | 1.1 | 1.26 nM | O=C1COc2c(CCNCCN(C(=O)CCOCCc3cccc(CN4CCC5(CC4)CN(C(=O)c4ccc6sccc6c4)CCO5)c3)C3CCCCC3)ccc(O)c2N1 [Example 92, 3-(3-((4-(Benzo[b]thiophene-5-carbonyl)-1-oxa-4,9-diazaspiro[5.5]undecan-9-yl)methyl)phenethoxy)-N-cyclohexyl-N-(2-(2-(5-hydroxy-3-oxo-3,4-dihydro-2H-benzo[b][1,4]oxazin-8-yl)ethylamino)ethyl)propanamide]
16 | 126 nM | 1.0 | 0.251 nM | CC(C)Cc1nc(C(=O)N2CCOC3(CCN(Cc4cccc(CCOCCC(=O)N(CCNCCc5ccc(O)c6c5OCC(=O)N6)C5CCCCC5)c4)CC3)C2)cs1 [Example 94, N-Cyclohexyl-N-(2-(2-(5-hydroxy-3-oxo-3,4-dihydro-2H-benzo[b][1,4]oxazin-8-yl)ethylamino)ethyl)-3-(3-((4-(2-isobutylthiazole-4-carbonyl)-1-oxa-4,9-diazaspiro[5.5]undecan-9-yl)methyl)phenethoxy)propanamide]
